Target: Taq polymerase (Thermus aquaticus, UniProt P19821)
Experiment: Primer extension on 71-mer after random addition of compound or addition of photoproduct
Assay type: biochemical
Conditions: for extension products, irradiated samples: 71-mer irradiated 15 minutes on CE-I at 25°C with AMIP (200 µg/ml), AMDMIP (200 µg/ml) or MIP (60 µg/ml), extension 5 minutes at 55°C
Description: In this experiment, the ability of AMIP, AMDMIP and MIP to block replication of 71-mer is investigated by randomly adding each compound to the 71-mer. of course, addition may only be random in the sense that one or more adducts may be formed with any one strand of nucleic acid. The actual placement of the isopsoralen may be governed by preferential binding at particular sites (e.g. A:T). In addition to blockage by random adducts, photoproducts of the various isopsoralens may be providing an inhibitory effect. No attempt to separate the effects of photoproduct from the effects of covalent adducts on the 71-mer template was made in this series of experiments.
In these experiments, the 71-mer template (10^-9 M) was primed with ^32P-SK-39 (10^-8) and extended with Taq polymerase in a total volume of 20 µl. The dNTP concentration was 200 µM. In the control samples, the 71-mer, the primer, and the dNTPs were mixed in Taq buffer in a volume of 18 µl. These samples were initially denatured at 95°C for 5 minutes, followed by equilibration at 550C for 3 minutes. Taq enzyme was then added (0.5 units) and the extension reaction was carried out for 5 minutes at 55°C. The reaction was stopped by making the solution 10 mM in EDTA. In another set of samples, the 71-mer in 10 µl was mixed with either AMIP (200 µg/ml), AMDMIP (200 µg/ml), or MIP (60 µg/ml). Half of these samples were irradiated for 15 minutes on the CE-I device at 25°C. The other half was kept in the dark as controls. These samples were then mixed with the primer and dNTPs as before, and were subjected to the same thermal profile and extension reactions as the samples that were described earlier. The results were examined by PAGE. The extended product bands were identified by autoradiography, excised and counted (data not shown).
In this experiment, the ability of two different Phenylazide derivatives (see Table 1), photobiotin (Vector Labs) and monoazide ethidium chloride, to block replication of 71-mer was investigated by randomly adding each compound to the 71-mer. Again, addition may only be random in the sense that one or more adducts may be formed with any one strand of nucleic acid. The actual placement of these compounds may be governed by preferential binding at particular sites (e.g. A:T). In addition to blockage by random adducts, there may be inhibition by photoproducts. As in Example 23, no attempt was made to separate the impact of photoproducts from that of covalent binding of photoreactive compound on the 71-mer.
The two compounds, photobiotin and monoazide ethidium chloride, have different spectral characteristics. To activate these compounds, two different wavelength regions were selected using a single light source (General Electric Sunlamp, Model RSM, 275 watt). The light source was positioned 10 cm above uncapped Eppendorph tubes which contained samples to be irradiated. The samples were kept on ice during irradiation. A pyrex dish was placed between the lamp and the samples.
For samples containing photobiotin, 2.5 cm of water was added to the pyrex dish to help remove some of the infrared radiation. The samples were irradiated for 15 minutes.
For samples containing monoazide ethidium chloride, wavelengths less than 400 nm were filtered out by using 2.5 cm of an aqueous solution of 2.9 M NaNO2. Removal of short wavelengths (i.e. wavelengths shorter than 400 nm) is necessary for the use of monoazide ethidium chloride. Irradiation of this compound with shorter wavelengths results in conversion to non-active forms (data not shown). Wavelengths below 400 nm are therefore undesirable for use with this compound.
In this experiment, the 71-mer template (2 x 10^-9 M) in 10 µl was mixed with either no photoreactive compound, photobiotin (6 x 10^-6 M), or monoazide ethidium (1.4 x 10^-3 M). Half of each of these samples were irradiated on ice for 15 minutes with wavelengths appropriate for each specific photoreactive compound. […]

Sequence of Taq polymerase (P19821 whole entry): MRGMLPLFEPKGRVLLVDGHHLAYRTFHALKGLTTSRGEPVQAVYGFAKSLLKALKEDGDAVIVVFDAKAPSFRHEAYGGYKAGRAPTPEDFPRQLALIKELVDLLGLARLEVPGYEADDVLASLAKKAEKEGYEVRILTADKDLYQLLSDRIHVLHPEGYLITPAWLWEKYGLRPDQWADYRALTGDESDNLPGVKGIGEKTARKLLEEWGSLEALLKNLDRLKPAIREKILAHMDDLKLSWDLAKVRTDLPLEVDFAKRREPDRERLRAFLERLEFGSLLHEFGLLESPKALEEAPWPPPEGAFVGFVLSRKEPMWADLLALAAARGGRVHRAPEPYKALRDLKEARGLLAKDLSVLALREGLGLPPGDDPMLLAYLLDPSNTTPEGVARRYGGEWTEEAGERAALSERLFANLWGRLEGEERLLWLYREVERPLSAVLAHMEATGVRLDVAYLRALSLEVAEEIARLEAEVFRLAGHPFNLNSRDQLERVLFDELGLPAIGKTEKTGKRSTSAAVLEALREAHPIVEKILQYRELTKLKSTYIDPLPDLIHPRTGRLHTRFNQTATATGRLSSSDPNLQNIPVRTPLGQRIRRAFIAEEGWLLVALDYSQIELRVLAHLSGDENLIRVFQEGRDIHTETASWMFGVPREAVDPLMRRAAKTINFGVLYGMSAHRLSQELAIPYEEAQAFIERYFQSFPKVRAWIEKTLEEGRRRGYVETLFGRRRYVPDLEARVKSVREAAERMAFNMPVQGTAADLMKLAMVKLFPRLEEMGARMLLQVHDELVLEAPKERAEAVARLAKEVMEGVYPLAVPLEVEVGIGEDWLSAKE

Compound | extension products, 71-mer irradiated in the presence of AMDMIP (200 µg/ml AMDMIP, CE-I device at 25°C) | extension products, irradiated samples | extension products, dark controls (unirradiated AMDMIP added to unirradiated 71-mer) | amount of full length product relative to the control samples (irradiated MIP (60 µg/ml))
4'-Aminomethyl-4,5'-dimethylisopsoralen [AMDMIP] | no extension products at all | not extended at all | full length extension product | 
5-Aminomethylisopsoralen [AMIP] |  | not extended at all |  | 
Cc1cc2occc2c2oc(=O)ccc12 [MIP, 5-Methylisopsoralen] |  | some full length extension product and a minor truncated product |  | half
